According to PMC8319882 (Drugs in R&D, 2021):

Tested on: SARS-CoV-2 spike protein binding to ACE2

FLDKFNHNFKDLF [13AApi]
Inhibition of interaction between SARS-CoV-2 spike and immobilized ACE2: Greater than 40%
